Columns and labels:
Format in all cases: in vivo
[1] = test system: blackgrass (Alopecurus myosuroides); experiment: Test A postemergence, blackgrass; details: Postemergence, 0 to 100 scale (0 no effect, 100 complete control); for Blackgrass plant response rating: visual injury vs untreated controls after approx. 10 days
Method in brief: (§1)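 Compounds in non-phytotoxic solvent with surfactant. Soil: loam/sand. Preemergence via directed soil spray after seeding; postemergence on seedlings 2–10 cm, one- to two-leaf.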

[2] = test system: Ryegrass, Italian (Italian ryegrass, Lolium multiflorum); experiment: Test A postemergence, Ryegrass, Italian; details: Postemergence; for Ryegrass, Italian plant response rating: visual injury vs untreated controls after approx. 10 days
Method in brief: as §1

[3] = test system: wheat (Triticum aestivum); experiment: Test A postemergence, wheat; details: Postemergence; for Wheat plant response rating: visual injury vs untreated controls after approx. 10 days
Method in brief: (§2)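 Preemergence: pigweed seeds in loam soil–sand blend received a directed soil spray of test chemicals in a non-phytotoxic solvent with surfactant. Postemergence: barnyardgrass, wheat and galium in pots of the same soil, 2 to 10 cm tall at one- to two-leaf stage, sprayed with the same formulation.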

[4] = test system: Foxtail, Giant (giant foxtail, Setaria faberi); experiment: Test A postemergence, Foxtail, Giant; details: Postemergence; for Foxtail, Giant plant response rating: visual injury vs untreated controls after approx. 10 days
Method in brief: as §1

[5] = test system: pigweed (Amaranthus retroflexus); experiment: Test A preemergence, pigweed; details: for Plant response rating, Pigweed: 0 to 100 scale (0 no effect, 100 complete control); for Pigweed plant response rating: visual injury on 0 to 100 scale (0 no effect, 100 complete control), approximately 10 days
Method in brief: as §2

[6] = test system: galium (catchweed bedstraw, Galium aparine); experiment: Test A postemergence, galium; details: Postemergence; for Galium plant response rating: visual injury vs untreated controls after approx. 10 days
Method in brief: as §2

[7] = test system: ragweed (common ragweed, Ambrosia artemisiifolia); experiment: Test A postemergence, ragweed; details: Postemergence; for Ragweed plant response rating: visual injury vs untreated controls after approx. 10 days
Method in brief: as §1

[8] = test system: Ryegrass, Italian (Italian ryegrass, Lolium multiflorum); experiment: Test A preemergence, Ryegrass, Italian; details: Preemergence; for Plant response rating, Ryegrass, Italian: 0 to 100 scale (0 no effect, 100 complete control); for Ryegrass, Italian plant response rating: visual injury on 0 to 100 scale (0 no effect, 100 complete control), approximately 10 days
Method in brief: as §1

kochia (Bassia scoparia) [9] = experiment: Test A preemergence, kochia; details: Preemergence; for Plant response rating, Kochia: 0 to 100 scale (0 no effect, 100 complete control); for Kochia plant response rating: visual injury on 0 to 100 scale (0 no effect, 100 complete control), approximately 10 days
Method in brief: as §1

[10] = test system: Foxtail, Giant (giant foxtail, Setaria faberi); experiment: Test A preemergence, Foxtail, Giant; details: Preemergence; for Plant response rating, Foxtail, Giant: 0 to 100 scale (0 no effect, 100 complete control); for Foxtail, Giant plant response rating: visual injury on 0 to 100 scale (0 no effect, 100 complete control), approximately 10 days
Method in brief: as §1

corn (Zea mays) = experiment: Test A postemergence, corn; details: Postemergence; for Corn plant response rating: visual injury vs untreated controls after approx. 10 days
Method in brief: as §1

[11] = test system: barnyardgrass (Echinochloa crus-galli); experiment: Test A preemergence, barnyardgrass; details: Preemergence; for Plant response rating, Barnyardgrass: 0 to 100 scale (0 no effect, 100 complete control); for Barnyardgrass plant response rating: visual injury on 0 to 100 scale (0 no effect, 100 complete control), approximately 10 days
Method in brief: as §1

[12] = test system: pigweed (Amaranthus retroflexus); experiment: Test A postemergence, pigweed; details: Postemergence; for Pigweed plant response rating: visual injury vs untreated controls after approx. 10 days
Method in brief: as §1

[13] = test system: ragweed (common ragweed, Ambrosia artemisiifolia); experiment: Test A preemergence, ragweed; details: Preemergence; for Plant response rating, Ragweed: 0 to 100 scale (0 no effect, 100 complete control); for Ragweed plant response rating: visual injury on 0 to 100 scale (0 no effect, 100 complete control), approximately 10 days
Method in brief: as §1

kochia (Bassia scoparia) [14] = experiment: Test A postemergence, kochia; details: Postemergence; for Kochia plant response rating: visual injury vs untreated controls after approx. 10 days
Method in brief: as §1

[15] = test system: barnyardgrass (Echinochloa crus-galli); experiment: Test A postemergence, barnyardgrass; details: Postemergence, 0 to 100 scale (0 no effect, 100 complete control); for Barnyardgrass plant response rating: visual injury vs untreated controls after approx. 10 days
Method in brief: as §2

[16] = 31 g ai/ha, visual injury on 0 to 100 scale (0 no effect, 100 complete control), approx. 10 days
[17] = 125 g ai/ha, 0 to 100 scale (0 no effect, 100 complete control)
[18] = 31 g ai/ha, visual injury, approx. 10 days
[19] = 125 g ai/ha, visual injury approx. 10 days
[20] = 125 g ai/ha, visual injury approx. 10 days, 0 to 100 scale (0 no effect, 100 complete control)
[21] = 500 g ai/ha, 0 to 100 scale (0 no effect, 100 complete control)
[22] = 125 g ai/ha, visual injury, approx. 10 days
[23] = 500 g ai/ha, visual injury approx. 10 days
[24] = 500 g ai/ha, visual injury approx. 10 days, 0 to 100 scale (0 no effect, 100 complete control)

Cc1cc(C)c(N(COC(=O)c2ccccc2)S(=O)(=O)C(F)(F)F)cc1C1=NOC2(CCCC2)C1 [Compound 149]
20: Plant response rating, Blackgrass ([1]; 125 g ai/ha) | Plant response rating, Ragweed [7, 17]
10: Plant response rating, Kochia (kochia (Bassia scoparia) [14]; [17]) | Plant response rating, Barnyardgrass ([15]; 31 g ai/ha)
80: Foxtail, Giant plant response rating ([10]; 125 g ai/ha)
70: Pigweed plant response rating ([5]; 125 g ai/ha)
60: Plant response rating, Galium [6, 17]
0: Plant response rating, Blackgrass ([1]; 31 g ai/ha) | Plant response rating, Ryegrass, Italian [2, 16] | Plant response rating, Ryegrass, Italian [2, 17] | Plant response rating, Wheat [3, 16] | Plant response rating, Wheat [3, 17] | Plant response rating, Foxtail, Giant [4, 16] | Plant response rating, Galium [6, 16] | Plant response rating, Ragweed [7, 16] | Plant response rating, Kochia (kochia (Bassia scoparia) [9]; [18]) | Kochia plant response rating (kochia (Bassia scoparia) [9]; 125 g ai/ha) | Plant response rating, Corn (corn (Zea mays); [16]) | Plant response rating, Corn (corn (Zea mays); [17]) | Plant response rating, Barnyardgrass [11, 18] | Barnyardgrass plant response rating ([11]; 125 g ai/ha) | Plant response rating, Pigweed [12, 16] | Plant response rating, Ragweed [13, 18] | Ragweed plant response rating ([13]; 125 g ai/ha) | Plant response rating, Kochia (kochia (Bassia scoparia) [14]; [16])
40: Plant response rating, Pigweed [12, 17] | Plant response rating, Barnyardgrass ([15]; 125 g ai/ha)
50: Plant response rating, Ryegrass, Italian [8, 18] | Ryegrass, Italian plant response rating ([8]; 125 g ai/ha)
30: Plant response rating, Foxtail, Giant [4, 17] | Plant response rating, Pigweed [5, 18] | Plant response rating, Foxtail, Giant [10, 18]

CCn1nccc(-c2cc(NS(=O)(=O)C(F)(F)F)c(C)cc2C)c1=O [Compound 79]
80: Ryegrass, Italian plant response rating [2, 21] | Wheat plant response rating [3, 21] | Ragweed plant response rating [7, 21] | Pigweed plant response rating [12, 21] | Ragweed plant response rating ([13]; 125 g ai/ha) | Plant response rating, Barnyardgrass [15, 19]
90: Plant response rating, Foxtail, Giant [4, 20] | Foxtail, Giant plant response rating [4, 21] | Pigweed plant response rating ([5]; 125 g ai/ha) | Plant response rating, Galium [6, 20] | Galium plant response rating [6, 21] | Ryegrass, Italian plant response rating ([8]; 125 g ai/ha) | Plant response rating, Kochia (kochia (Bassia scoparia) [9]; 500 g ai/ha) | Plant response rating, Ragweed ([13]; 500 g ai/ha) | Barnyardgrass plant response rating ([15]; 500 g ai/ha)
30: Plant response rating, Blackgrass [1, 19] | Blackgrass plant response rating ([1]; 500 g ai/ha) | Plant response rating, Ragweed [7, 20] | Plant response rating, Pigweed [12, 20]
100: Plant response rating, Pigweed ([5]; 500 g ai/ha) | Plant response rating, Ryegrass, Italian ([8]; 500 g ai/ha) | Foxtail, Giant plant response rating ([10]; 125 g ai/ha) | Plant response rating, Foxtail, Giant ([10]; 500 g ai/ha) | Barnyardgrass plant response rating ([11]; 125 g ai/ha) | Plant response rating, Barnyardgrass ([11]; 500 g ai/ha)
70: Plant response rating, Wheat [3, 20] | Kochia plant response rating (kochia (Bassia scoparia) [9]; 125 g ai/ha) | Corn plant response rating (corn (Zea mays); [21]) | Kochia plant response rating (kochia (Bassia scoparia) [14]; [21])
40: Plant response rating, Ryegrass, Italian [2, 20] | Plant response rating, Kochia (kochia (Bassia scoparia) [14]; [20])
10: Plant response rating, Corn (corn (Zea mays); [20])

Cc1cc(Cl)c(NS(=O)(=O)C(F)(F)F)cc1C1=NOC2(CCCCC2)C1 [Compound 221]
70: Wheat plant response rating [3, 21] | Plant response rating, Ragweed [7, 17] | Plant response rating, Kochia (kochia (Bassia scoparia) [9]; [22]) | Kochia plant response rating (kochia (Bassia scoparia) [14]; [21])
40: Corn plant response rating (corn (Zea mays); [21])
90: Foxtail, Giant plant response rating [4, 21] | Ragweed plant response rating [7, 21] | Plant response rating, Kochia (kochia (Bassia scoparia) [9]; 500 g ai/ha) | Plant response rating, Ragweed [13, 22] | Plant response rating, Ragweed ([13]; 500 g ai/ha)
60: Ryegrass, Italian plant response rating [2, 21] | Plant response rating, Pigweed [5, 22] | Plant response rating, Kochia (kochia (Bassia scoparia) [14]; [17])
30: Blackgrass plant response rating ([1]; 500 g ai/ha) | Plant response rating, Barnyardgrass ([15]; 125 g ai/ha)
0: Plant response rating, Ryegrass, Italian [2, 17] | Plant response rating, Foxtail, Giant [4, 17]
80: Plant response rating, Galium [6, 17] | Pigweed plant response rating [12, 21] | Barnyardgrass plant response rating ([15]; 500 g ai/ha)
100: Plant response rating, Pigweed ([5]; 500 g ai/ha) | Galium plant response rating [6, 21] | Plant response rating, Ryegrass, Italian [8, 22] | Plant response rating, Ryegrass, Italian ([8]; 500 g ai/ha) | Plant response rating, Foxtail, Giant [10, 22] | Plant response rating, Foxtail, Giant ([10]; 500 g ai/ha) | Plant response rating, Barnyardgrass [11, 22] | Plant response rating, Barnyardgrass ([11]; 500 g ai/ha)
10: Plant response rating, Blackgrass ([1]; 125 g ai/ha) | Plant response rating, Corn (corn (Zea mays); [17])
20: Plant response rating, Wheat [3, 17] | Plant response rating, Pigweed [12, 17]

Cc1cc(Cl)c(C(=O)N(C)C)cc1NS(=O)(=O)C(F)(F)F [Compound 251]
20: Plant response rating, Blackgrass ([1]; 125 g ai/ha) | Plant response rating, Barnyardgrass [11, 22]
50: Plant response rating, Foxtail, Giant [10, 22]
80: Plant response rating, Ryegrass, Italian [2, 24] | Plant response rating, Foxtail, Giant [4, 24] | Plant response rating, Galium [6, 17] | Plant response rating, Galium [6, 24] | Plant response rating, Ragweed [7, 24] | Plant response rating, Pigweed [12, 17] | Plant response rating, Pigweed [12, 24] | Plant response rating, Ragweed [13, 22] | Ragweed plant response rating ([13]; 500 g ai/ha)
10: Plant response rating, Foxtail, Giant [4, 17]
100: Plant response rating, Pigweed [5, 22] | Pigweed plant response rating ([5]; 500 g ai/ha) | Ryegrass, Italian plant response rating ([8]; 500 g ai/ha)
30: Plant response rating, Ryegrass, Italian [2, 17] | Plant response rating, Corn (corn (Zea mays); [24])
0: Plant response rating, Corn (corn (Zea mays); [17])
70: Plant response rating, Wheat [3, 24] | Plant response rating, Ragweed [7, 17] | Plant response rating, Barnyardgrass ([15]; 125 g ai/ha) | Plant response rating, Barnyardgrass [15, 23]
90: Plant response rating, Ryegrass, Italian [8, 22] | Plant response rating, Kochia (kochia (Bassia scoparia) [9]; [22]) | Kochia plant response rating (kochia (Bassia scoparia) [9]; 500 g ai/ha) | Foxtail, Giant plant response rating ([10]; 500 g ai/ha) | Barnyardgrass plant response rating ([11]; 500 g ai/ha)
40: Plant response rating, Wheat [3, 17] | Plant response rating, Kochia (kochia (Bassia scoparia) [14]; [17])
60: Plant response rating, Blackgrass [1, 23] | Plant response rating, Kochia (kochia (Bassia scoparia) [14]; [24])

From patent US20230278972A1, “SUBSTITUTED HALOALKYL SULFONANILIDE HERBICIDES” (FMC Corporation, priority 2020, published 2023)
